Data set [1] relates to Candida albicans. Nature of the data set: Antifungal activity against Candida albicans ATCC SC5314 after 24 hrs by serial dilution method. The note with it: SC5314, 24 h. In kind it is functional.
For data set [2], the system named is Candida albicans. The experiment in a line: Antifungal activity against Candida albicans CPCC 400523 after 24 hrs by serial dilution method. It counts as functional. The note with it: CPCC 400523, 24 h.
For another data set, the system named is Cryptococcus neoformans. Nature of the data set: Antifungal activity against Cryptococcus neoformans cgmcc 2.3161 after 72 hrs by serial dilution method. In kind it is functional. The settings on record: cgmcc 2.3161, 72 h.
Another data set relates to Candida tropicalis. The experiment in a line: Antifungal activity against Candida tropicalis cgmcc 2.3739 after 24 hrs by serial dilution method. The note with it: cgmcc 2.3739, 24 h. It counts as functional.
A further data set concerns Aspergillus fumigatus. Nature of the data set: Antifungal activity against Aspergillus fumigatus cgmcc 3.7795 after 7 days by serial dilution method. In kind it is functional. The settings on record: cgmcc 3.7795, 168 h.
The subject of data set [3] is Candida albicans. The experiment in a line: Antifungal activity against fluconazole-resistant Candida albicans strain 103 after 24 hrs by serial dilution method. The note with it: Candida albicans, 103, 24 h. In kind it is functional.
The subject of data set [4] is Candida albicans. Nature of the data set: Antifungal activity against fluconazole-resistant Candida albicans strain 100 after 24 hrs by serial dilution method. It counts as functional. The settings on record: Candida albicans, 100, 24 h.
A short description of data set [5]: Stability in human plasma assessed as parent compound remaining at 2 uM after 60 mins by LC-MS/MS analysis. In kind it is ADME, cell-free. The settings on record: read-out: Stability.
The nature of data set [6]: Stability in human plasma assessed as parent compound remaining at 2 uM after 120 mins by LC-MS/MS analysis. It counts as ADME, cell-free. The settings on record: read-out: Stability.

≈ marks a conversion by molar mass, not a printed value. A value given as a limit tells only on which side of the number the result lay.

The term MIC denotes the smallest concentration in the dilution series that meets the test's criterion for growth inhibition.

For the molecule `CC(C)OC(=O)[C@H](Cn1ccnc1)NC(=O)c1nc2ccc(Br)cc2s1`, the MIC with Candida albicans [1] is 0.125 µg/mL (≈ 0.286 µM); against Candida albicans [2] it was 0.5 µg/mL (≈ 1.14 µM); against Cryptococcus neoformans, 2 µg/mL (≈ 4.57 µM); against Candida tropicalis, 1 µg/mL (≈ 2.29 µM); against Aspergillus fumigatus, over 64 µg/mL.

In the case of `CC(C)COC(=O)[C@H](Cn1ccnc1)NC(=O)c1cnc2ccccc2c1`, the MIC is 64 µg/mL (≈ 175 µM) against Candida albicans [1]; 64 µg/mL (≈ 175 µM) against Candida albicans [2]; 64 µg/mL (≈ 175 µM) against Cryptococcus neoformans; 32 µg/mL (≈ 87.3 µM) with Candida tropicalis; 64 µg/mL (≈ 175 µM) in the data set with Aspergillus fumigatus.

Regarding `CC(C)COC(=O)[C@H](Cn1ccnc1)NC(=O)c1cc2ccccc2s1`, the MIC worked out at 0.5 µg/mL (≈ 1.35 µM) with Candida albicans [1]; 1 µg/mL (≈ 2.69 µM) against Candida albicans [2]; 1 µg/mL (≈ 2.69 µM) against Cryptococcus neoformans; 0.25 µg/mL (≈ 0.673 µM) with Candida tropicalis; 8 µg/mL (≈ 21.5 µM) against Aspergillus fumigatus.

`CC(C)OC(=O)[C@H](Cn1ccnc1)NC(=O)c1nc2ccccc2[nH]1`: the MIC with Candida albicans [1], against Candida albicans [2], against Cryptococcus neoformans, against Candida tropicalis and with Aspergillus fumigatus was 64 µg/mL (≈ 187 µM) in each case.

With `CC(C)OC(=O)[C@H](Cn1ccnc1)NC(=O)c1cc2ccccc2n1C`, the MIC in the data set on Candida albicans [1] worked out at 8 µg/mL (≈ 22.6 µM); against Candida albicans [2] it was 8 µg/mL (≈ 22.6 µM); in the data set on Cryptococcus neoformans, 64 µg/mL (≈ 181 µM); against Candida tropicalis, 0.5 µg/mL (≈ 1.41 µM); against Aspergillus fumigatus, 64 µg/mL (≈ 181 µM).

Consider `CC(C)OC(=O)[C@H](Cn1ccnc1)NC(=O)c1cnc2ccccc2n1`, for which the MIC against Candida albicans [1] was 64 µg/mL (≈ 181 µM); against Candida albicans [2], 64 µg/mL (≈ 181 µM); against Cryptococcus neoformans, 64 µg/mL (≈ 181 µM); against Candida tropicalis, 16 µg/mL (≈ 45.3 µM); against Aspergillus fumigatus, 64 µg/mL (≈ 181 µM).

Consider `CC(C)COC(=O)[C@H](Cn1ccnc1)NC(=O)c1noc2c1CCc1ccccc1-2`, for which the MIC came to 0.5 µg/mL (≈ 1.22 µM) with Candida albicans [3]; 1 µg/mL (≈ 2.45 µM) against Candida albicans [4]; 0.125 µg/mL (≈ 0.306 µM) against Candida albicans [1]; 0.5 µg/mL (≈ 1.22 µM) against Candida albicans [2]; 4 µg/mL (≈ 9.79 µM) in the data set with Cryptococcus neoformans; 0.125 µg/mL (≈ 0.306 µM) with Candida tropicalis. The molecule also came in with an MIC against Aspergillus fumigatus of 8 µg/mL (≈ 19.6 µM).

Take `CC(C)OC(=O)[C@H](Cn1ccnc1)NC(=O)c1cnc2ccccc2c1`: the MIC amounted to 64 µg/mL (≈ 182 µM) with Candida albicans [1]; 64 µg/mL (≈ 182 µM) against Candida albicans [2]; 64 µg/mL (≈ 182 µM) in the data set on Cryptococcus neoformans; 32 µg/mL (≈ 90.8 µM) against Candida tropicalis; 64 µg/mL (≈ 182 µM) with Aspergillus fumigatus.

On to `CC(C)OC(=O)[C@H](Cn1ccnc1)NC(=O)c1cc2ccccc2o1`, for which the minimal inhibitory concentration (MIC) in the data set with Candida albicans [1] is 16 µg/mL (≈ 46.9 µM); with Candida albicans [2], 32 µg/mL (≈ 93.7 µM); with Cryptococcus neoformans, 4 µg/mL (≈ 11.7 µM); in the data set with Candida tropicalis, 0.5 µg/mL (≈ 1.46 µM); with Aspergillus fumigatus, 32 µg/mL (≈ 93.7 µM).

As to `CC(C)COC(=O)[C@H](Cn1ccnc1)NC(=O)c1ccc2c(c1)OCO2`, the MIC against Candida albicans [1] was 64 µg/mL (≈ 178 µM); in the data set on Candida albicans [2] it was 64 µg/mL (≈ 178 µM); with Cryptococcus neoformans, 64 µg/mL (≈ 178 µM); against Candida tropicalis it was 16 µg/mL (≈ 44.5 µM); against Aspergillus fumigatus it was 64 µg/mL (≈ 178 µM).

`CC(C)COC(=O)[C@H](Cn1ccnc1)NC(=O)c1cc2ccccc2n1C`: the MIC with Candida albicans [1] is 8 µg/mL (≈ 21.7 µM); with Candida albicans [2] it was 8 µg/mL (≈ 21.7 µM); against Cryptococcus neoformans, 4 µg/mL (≈ 10.9 µM); against Candida tropicalis, 1 µg/mL (≈ 2.71 µM); with Aspergillus fumigatus, 64 µg/mL (≈ 174 µM).

Regarding `CC(C)OC(=O)[C@H](Cn1ccnc1)NC(=O)c1ccc2ncoc2c1`, the MIC is 64 µg/mL (≈ 187 µM) against Candida albicans [1]; 64 µg/mL (≈ 187 µM) against Candida albicans [2]; 64 µg/mL (≈ 187 µM) in the data set with Cryptococcus neoformans; 32 µg/mL (≈ 93.5 µM) in the data set on Candida tropicalis; 64 µg/mL (≈ 187 µM) in the data set with Aspergillus fumigatus.

`CC(C)OC(=O)[C@H](Cn1ccnc1)NC(=O)c1cc2ccc(F)cc2[nH]1`: the MIC came out at 32 µg/mL (≈ 89.3 µM) against Candida albicans [1]; 32 µg/mL (≈ 89.3 µM) with Candida albicans [2]; 8 µg/mL (≈ 22.3 µM) against Cryptococcus neoformans; 0.5 µg/mL (≈ 1.4 µM) against Candida tropicalis; 64 µg/mL (≈ 179 µM) in the data set with Aspergillus fumigatus.

Take `CC(C)OC(=O)[C@H](Cn1ccnc1)NC(=O)c1noc2c1CCCc1ccccc1-2`: the MIC in the data set with Candida albicans [1] is 16 µg/mL (≈ 39.2 µM); with Candida albicans [2], 2 µg/mL (≈ 4.9 µM); against Cryptococcus neoformans, 64 µg/mL (≈ 157 µM); in the data set with Candida tropicalis, 1 µg/mL (≈ 2.45 µM); in the data set with Aspergillus fumigatus, 64 µg/mL (≈ 157 µM).

As to `CC(C)COC(=O)[C@H](Cn1ccnc1)NC(=O)c1cc2ccccc2o1`, the MIC in the data set with Candida albicans [1] was 8 µg/mL (≈ 22.5 µM); in the data set on Candida albicans [2], 8 µg/mL (≈ 22.5 µM); in the data set on Cryptococcus neoformans, 4 µg/mL (≈ 11.3 µM); in the data set with Candida tropicalis, 0.25 µg/mL (≈ 0.703 µM); in the data set with Aspergillus fumigatus it was 32 µg/mL (≈ 90 µM).

Take `CC(C)OC(=O)[C@H](Cn1ccnc1)NC(=O)c1ccc2c(c1)OCO2`: the MIC was 64 µg/mL (≈ 185 µM) in the data set with Candida albicans [1]; 64 µg/mL (≈ 185 µM) in the data set on Candida albicans [2]; 64 µg/mL (≈ 185 µM) in the data set with Cryptococcus neoformans; 32 µg/mL (≈ 92.7 µM) with Candida tropicalis; 64 µg/mL (≈ 185 µM) in the data set with Aspergillus fumigatus.

Regarding `Cc1nc2ccc(C(=O)N[C@@H](Cn3ccnc3)C(=O)OC(C)C)cc2o1`, the MIC against Candida albicans [1], against Candida albicans [2], with Cryptococcus neoformans, in the data set on Candida tropicalis and with Aspergillus fumigatus was 64 µg/mL (≈ 180 µM) throughout.

For the molecule `COc1ccc2c(c1)-c1onc(C(=O)N[C@@H](Cn3ccnc3)C(=O)OC(C)C)c1CC2`, the MIC against Candida albicans [1] is 0.25 µg/mL (≈ 0.589 µM); in the data set on Candida albicans [2], 16 µg/mL (≈ 37.7 µM); in the data set with Cryptococcus neoformans, 64 µg/mL (≈ 151 µM); against Candida tropicalis it was 2 µg/mL (≈ 4.71 µM); in the data set on Aspergillus fumigatus it was 64 µg/mL (≈ 151 µM).

With `CC(C)COC(=O)[C@H](Cn1ccnc1)NC(=O)c1noc2c1ccc1ccccc12`, the MIC was 2 µg/mL (≈ 4.92 µM) in the data set with Candida albicans [3]; 2 µg/mL (≈ 4.92 µM) in the data set on Candida albicans [4]; 0.125 µg/mL (≈ 0.308 µM) with Candida albicans [1]; 0.25 µg/mL (≈ 0.615 µM) in the data set on Candida albicans [2]; 0.125 µg/mL (≈ 0.308 µM) against Cryptococcus neoformans; 0.125 µg/mL (≈ 0.308 µM) in the data set on Candida tropicalis. The minimal inhibitory concentration (MIC) against Aspergillus fumigatus turned out to be 16 µg/mL (≈ 39.4 µM).

`COc1ccc2c(c1)CCc1c(C(=O)N[C@@H](Cn3ccnc3)C(=O)OC(C)C)noc1-2`: the MIC came out at 0.25 µg/mL (≈ 0.589 µM) against Candida albicans [1]; 4 µg/mL (≈ 9.42 µM) in the data set with Candida albicans [2]; 64 µg/mL (≈ 151 µM) in the data set on Cryptococcus neoformans; 8 µg/mL (≈ 18.8 µM) against Candida tropicalis; 64 µg/mL (≈ 151 µM) in the data set with Aspergillus fumigatus.

Consider `CC(C)OC(=O)[C@H](Cn1ccnc1)NC(=O)c1noc2c1ccc1ccccc12`, for which the MIC stood at 1 µg/mL (≈ 2.55 µM) in the data set with Candida albicans [3]; 2 µg/mL (≈ 5.1 µM) in the data set with Candida albicans [4]; 0.125 µg/mL (≈ 0.319 µM) in the data set on Candida albicans [1]; 0.25 µg/mL (≈ 0.637 µM) in the data set with Candida albicans [2]; 0.25 µg/mL (≈ 0.637 µM) with Cryptococcus neoformans; 0.125 µg/mL (≈ 0.319 µM) in the data set with Candida tropicalis. In the data set with Aspergillus fumigatus, this molecule gave an MIC of 4 µg/mL (≈ 10.2 µM). In data set [5], the remaining at 1 h, 2 µM stood at 95.8%. Moreover, the remaining at 2 h, 2 µM in data set [6] was determined as 91.7%.

(Values after ChEMBL document CHEMBL4219262, “Design, synthesis and evaluation of benzoheterocycle analogues as potent antifungal agents targeting CYP51” (Bioorg Med Chem, 2018).)
